Reference: the supplement of paper PMC10307832

Columns and labels:
Assay in all cases: relative viability (nuclei count vs DMSO), 5 days (fraction); higher = more cells survive
NCI-H647 = tested on: NCI-H647
Method in brief: (§1)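 Relative viability divides the nuclei count in treated wells by that in vehicle wells. Lung cancer cell lines were seeded in 1536-well plates, dosed by pin tool the next day, and fixed and stained after 5 days in one step with final 0.05% Triton X-100, 1% formaldehyde and 1 ug/ml Hoechst. Dosing was a single drug or a fixed anchor-drug dose plus five library-drug doses (not always all listed) in √10 steps, and values are medians of duplicate plates imaged at 4×.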

NCI-H358 = tested on: NCI-H358
Method in brief: as §1

EPLC-272H = tested on: EPLC-272H
Method in brief: as §1

A-427 = tested on: A-427
Method in brief: as §1

LK-2 = tested on: LK-2
Method in brief: as §1

NCI-H460 = tested on: NCI-H460
Method in brief: as §1

NCI-H2405 = tested on: NCI-H2405
Method in brief: as §1

NCI-H1755 = tested on: NCI-H1755
Method in brief: as §1

RERF-LC-KJ = tested on: RERF-LC-KJ
Method in brief: as §1

SW 900 = tested on: SW 900
Method in brief: as §1

NCI-H1734 = tested on: NCI-H1734
Method in brief: as §1

LU99A = tested on: LU99A
Method in brief: as §1

ChaGo-K-1 = tested on: ChaGo-K-1
Method in brief: as §1

EMC-BAC-2 = tested on: EMC-BAC-2
Method in brief: as §1

HCC-44 = tested on: HCC-44
Method in brief: as §1

NCI-H596 = tested on: NCI-H596
Method in brief: as §1

NCI-H1792 = tested on: NCI-H1792
Method in brief: as §1

NCI-H1993 = tested on: NCI-H1993
Method in brief: as §1

NCI-H522 = tested on: NCI-H522
Method in brief: as §1

EKVX = tested on: EKVX
Method in brief: as §1

HARA = tested on: HARA
Method in brief: as §1

## CN1CCN(CCOc2cc(OC3CCOCC3)c3c(Nc4c(Cl)ccc5c4OCO5)ncnc3c2)CC1 [Saracatinib] + NC(=O)Nc1cc(-c2cccc(F)c2)sc1C(=O)N[C@H]1CCCNC1 [AZD7762] (partner 0.2 µM)
NCI-H647; first compound 0.02 µM
  relative viability: 0.564
NCI-H647; first compound 0.2 µM
  relative viability: 0.509
NCI-H647; first compound 0.6325 µM
  relative viability: 0.507
NCI-H647; first compound 2 µM
  relative viability: 0.354
NCI-H358; first compound 0.02 µM
  relative viability: 0.668
NCI-H358; first compound 0.2 µM
  relative viability: 0.418
NCI-H358; first compound 0.6325 µM
  relative viability: 0.364
NCI-H358; first compound 2 µM
  relative viability: 0.318
EPLC-272H; first compound 0.02 µM
  relative viability: 0.203
EPLC-272H; first compound 0.2 µM
  relative viability: 0.229
EPLC-272H; first compound 0.6325 µM
  relative viability: 0.18
EPLC-272H; first compound 2 µM
  relative viability: 0.245
A-427; first compound 0.02 µM
  relative viability: 0.759
A-427; first compound 0.2 µM
  relative viability: 0.636
A-427; first compound 0.6325 µM
  relative viability: 0.611
A-427; first compound 2 µM
  relative viability: 0.569
LK-2; first compound 0.02 µM
  relative viability: 0.391
LK-2; first compound 0.2 µM
  relative viability: 0.219
LK-2; first compound 0.6325 µM
  relative viability: 0.262
LK-2; first compound 2 µM
  relative viability: 0.133
NCI-H460; first compound 0.02 µM
  relative viability: 0.732
NCI-H460; first compound 0.2 µM
  relative viability: 0.482
NCI-H460; first compound 0.6325 µM
  relative viability: 0.628
NCI-H460; first compound 2 µM
  relative viability: 0.596
NCI-H2405; first compound 0.02 µM
  relative viability: 0.702
NCI-H2405; first compound 0.2 µM
  relative viability: 0.594
NCI-H2405; first compound 0.6325 µM
  relative viability: 0.554
NCI-H2405; first compound 2 µM
  relative viability: 0.388
NCI-H1755; first compound 0.02 µM
  relative viability: 0.438
NCI-H1755; first compound 0.2 µM
  relative viability: 0.41
NCI-H1755; first compound 0.6325 µM
  relative viability: 0.465
NCI-H1755; first compound 2 µM
  relative viability: 0.372
RERF-LC-KJ; first compound 0.02 µM
  relative viability: 1.13
RERF-LC-KJ; first compound 0.2 µM
  relative viability: 0.971
RERF-LC-KJ; first compound 2 µM
  relative viability: 1
SW 900; first compound 0.02 µM
  relative viability: 0.696
SW 900; first compound 0.2 µM
  relative viability: 0.545
SW 900; first compound 0.6325 µM
  relative viability: 0.533
SW 900; first compound 2 µM
  relative viability: 0.492
NCI-H1734; first compound 0.02 µM
  relative viability: 0.537
NCI-H1734; first compound 0.6325 µM
  relative viability: 0.622
NCI-H1734; first compound 2 µM
  relative viability: 0.566
LU99A; first compound 0.02 µM
  relative viability: 0.374
LU99A; first compound 0.2 µM
  relative viability: 0.279
LU99A; first compound 0.6325 µM
  relative viability: 0.31
LU99A; first compound 2 µM
  relative viability: 0.325
ChaGo-K-1; first compound 0.02 µM
  relative viability: 0.895
ChaGo-K-1; first compound 0.2 µM
  relative viability: 0.614
ChaGo-K-1; first compound 0.6325 µM
  relative viability: 0.967
ChaGo-K-1; first compound 2 µM
  relative viability: 0.924
EMC-BAC-2; first compound 0.02 µM
  relative viability: 1.12
EMC-BAC-2; first compound 0.2 µM
  relative viability: 1.09
EMC-BAC-2; first compound 0.6325 µM
  relative viability: 1.09
EMC-BAC-2; first compound 2 µM
  relative viability: 0.946
HCC-44; first compound 0.02 µM
  relative viability: 1.07
HCC-44; first compound 0.2 µM
  relative viability: 0.941
HCC-44; first compound 0.6325 µM
  relative viability: 1.03
HCC-44; first compound 2 µM
  relative viability: 1.01
NCI-H596; first compound 0.02 µM
  relative viability: 1.12
NCI-H596; first compound 0.2 µM
  relative viability: 1.05
NCI-H596; first compound 0.6325 µM
  relative viability: 1.14
NCI-H596; first compound 2 µM
  relative viability: 0.852
NCI-H1792; first compound 0.02 µM
  relative viability: 0.618
NCI-H1792; first compound 0.2 µM
  relative viability: 0.542
NCI-H1792; first compound 0.6325 µM
  relative viability: 0.831
NCI-H1792; first compound 2 µM
  relative viability: 0.648
NCI-H1993; first compound 0.02 µM
  relative viability: 0.836
NCI-H1993; first compound 0.2 µM
  relative viability: 0.719
NCI-H1993; first compound 0.6325 µM
  relative viability: 0.694
NCI-H1993; first compound 2 µM
  relative viability: 0.581
NCI-H522; first compound 0.02 µM
  relative viability: 0.961
NCI-H522; first compound 0.2 µM
  relative viability: 0.809
NCI-H522; first compound 0.6325 µM
  relative viability: 0.807
NCI-H522; first compound 2 µM
  relative viability: 0.822
EKVX; first compound 0.02 µM
  relative viability: 0.841
EKVX; first compound 0.6325 µM
  relative viability: 0.659
EKVX; first compound 2 µM
  relative viability: 0.29
HARA; first compound 0.02 µM
  relative viability: 0.413
HARA; first compound 0.2 µM
  relative viability: 0.345
HARA; first compound 0.6325 µM
  relative viability: 0.247
HARA; first compound 2 µM
  relative viability: 0.355
